Experimental data as given in US5424328A, “Phenyl-imidazolidinone derivatives” (Farmitalia Carlo Erba S.r.l., priority 1992, dated 1995).

Assays:
[1] = biological target: T1, serotonin 5-HT3 receptors (Rattus norvegicus, UniProt P35563); assay: Affinity for serotonin 5-HT3 receptors in rat entorhinal cortex, radioligand 3H-BRL 43694 binding
T1 construct: in rat entorhinal cortex; from tissue; host or cells: rat entorhinal cortex
T1 sequence (P35563 24-483): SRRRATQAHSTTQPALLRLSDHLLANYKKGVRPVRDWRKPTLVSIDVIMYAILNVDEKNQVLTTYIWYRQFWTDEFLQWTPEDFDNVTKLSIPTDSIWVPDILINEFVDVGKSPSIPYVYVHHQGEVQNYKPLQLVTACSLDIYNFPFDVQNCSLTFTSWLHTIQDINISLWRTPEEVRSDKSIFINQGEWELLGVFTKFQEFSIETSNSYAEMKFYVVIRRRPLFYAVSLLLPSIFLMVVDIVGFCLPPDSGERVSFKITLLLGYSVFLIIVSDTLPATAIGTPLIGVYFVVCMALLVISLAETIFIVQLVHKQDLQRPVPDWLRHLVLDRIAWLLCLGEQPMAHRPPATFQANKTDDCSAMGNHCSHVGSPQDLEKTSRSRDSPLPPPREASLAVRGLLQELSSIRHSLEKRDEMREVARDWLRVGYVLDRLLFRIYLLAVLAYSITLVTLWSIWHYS
Protocol: The affinity for serotonin 5-HT3 receptors was assessed for instance in rat entorhinal cortex using a selective radioligand 3H-BRL 43694 as described by Nelson and Thomas (1989).
NELSON D. R. and THOMAS D. R., [3H]-BRL 43694 (Granisetron), a specific ligand for 5-HT3 binding sites in rat brain cortical membranes, Biochem. Pharmac., 38, 1693-1695, 1989. The affinity data for a representative group of compounds of the invention are set out in following Table II.

5HT3 receptor = biological target: T2, 5HT3 receptor (Rattus norvegicus, UniProt P35563); assay: Inhibition of the von Bezold-Jarisch chemoreflex evoked by 5-HT in the anesthetized rat (in vivo 5HT3 antagonist activity); conditions: 5-HT 20 ug/kg i.v.; for % inhibition of the Bezold-Jarisch reflex: mean ± S.E.M., 6 animals, * p < 0.01 vs controls; for ED50: iv, read-out: ED50 (limits)
T2 construct: in the anesthetized rat; from tissue; host or cells: whole anesthetized rat (in vivo); endogenous receptor
T2 sequence (P35563 24-483): T1 sequence (P35563 24-483)
Protocol: Pharmacol. 326, 36-44 (1984).
The following Table I reports the in vivo 5HT3 antagonist activity data obtained in this test for a representative group of compounds of the invention.
Inhibition of the Bezold-Jarisch reflex elicited by 5-HT
(20 ug/kg i.v.) by i.v. FCE-compounds in the anesthetized
Values are mean ± S.E.M. from 6 animals.
*p < 0.01 vs controls (Dunnett's test).

Row | SMILES | IC50 [1] | % inhibition of the Bezold-Jarisch reflex (5HT3 receptor; dose 1 μg/kg i.v.) | % inhibition of the Bezold-Jarisch reflex (5HT3 receptor; dose 3 μg/kg i.v.) | % inhibition of the Bezold-Jarisch reflex (5HT3 receptor; dose 10 μg/kg i.v.) | ED50 (5HT3 receptor) | % inhibition of the Bezold-Jarisch reflex (5HT3 receptor; dose 30 μg/kg i.v.) | % inhibition of the Bezold-Jarisch reflex (5HT3 receptor; dose 0.5 μg/kg i.v.) | % inhibition of the Bezold-Jarisch reflex (5HT3 receptor; dose 2 μg/kg i.v.) | % inhibition of the Bezold-Jarisch reflex (5HT3 receptor; dose 8 μg/kg i.v.) | % inhibition of the Bezold-Jarisch reflex (5HT3 receptor; dose 100 μg/kg i.v.)
1 | Cc1[nH]cnc1CN1CCN(c2cc(Cl)cc(Cl)c2)C1=O [FCE 28232, 1-(5-methyl-1H-imidazol-4-yl)methyl-3-(3,5-dichlorophenyl)-imidazolidin-2-one] | 0.42 nM | 18.2 ± 2.4% |  |  | 2.2 µg/kg |  | 1.5 ± 4.8% | 55.5 ± 7.1% | 88.7 ± 1.8% | 
2 | Cc1[nH]cnc1CN1CCN(c2ccccc2)C1=O [FCE 28277, 1-(5-methyl-1H-imidazol-4-yl)methyl-3-phenyl-imidazolidin-2-one] | 14 nM | 14.7 ± 3.8% | 37.4 ± 6.5% | 79.4 ± 4.1% | 3.9 µg/kg |  |  |  |  | 
3 | O=C1N(Cc2c[nH]cn2)CCN1c1ccccc1 [FCE 28307, 1-(1H-imidazol-4-yl)methyl-3-phenyl-imidazolidin-2-one] | 44 nM |  |  |  |  |  |  |  |  | 56.1 ± 10.3%
4 | Cc1cc(C)cc(N2CCN(Cc3nc[nH]c3C)C2=O)c1 [FCE 28356, 1-(5-methyl-1H-imidazol-4-yl)methyl-3-(3,5-dimethylphenyl)-imidazolidin-2-one] | 1.8 nM |  |  |  |  |  |  |  |  | 88.6 ± 2.4%

Results, then the molecule that gave them:

Row | IC50 [1] | % inhibition of the Bezold-Jarisch reflex (5HT3 receptor; dose 1 μg/kg i.v.) | % inhibition of the Bezold-Jarisch reflex (5HT3 receptor; dose 3 μg/kg i.v.) | % inhibition of the Bezold-Jarisch reflex (5HT3 receptor; dose 10 μg/kg i.v.) | ED50 (5HT3 receptor) | % inhibition of the Bezold-Jarisch reflex (5HT3 receptor; dose 30 μg/kg i.v.) | % inhibition of the Bezold-Jarisch reflex (5HT3 receptor; dose 0.5 μg/kg i.v.) | % inhibition of the Bezold-Jarisch reflex (5HT3 receptor; dose 2 μg/kg i.v.) | % inhibition of the Bezold-Jarisch reflex (5HT3 receptor; dose 8 μg/kg i.v.) | % inhibition of the Bezold-Jarisch reflex (5HT3 receptor; dose 100 μg/kg i.v.) | SMILES
5 | 2.1 nM | 7.0 ± 6.0% | 37.8 ± 5.8% | 89.7 ± 1.8% | 5.26 µg/kg |  |  |  |  |  | Cc1[nH]cnc1CN1CCN(c2cccc(Cl)c2)C1=O [FCE 27733, 1-(5-methyl-1H-imidazol-4-yl)methyl-3-(3-chlorophenyl)-imidazolidin-2-one]
6 | 2.7 nM |  | 30.0 ± 5.9% | 64.2 ± 5.0% | 6.5 µg/kg | 84.4 ± 4.2% |  |  |  |  | Cc1[nH]cnc1CN1CCN(c2cccc(Br)c2)C1=O [FCE 28159, 1-(5-methyl-1H-imidazol-4-yl)methyl-3-(3-bromophenyl)-imidazolidin-2-one]
7 | 11 nM |  |  | 14.3 ± 9.2% | 32.2 µg/kg | 44.5 ± 7.3% |  |  |  | 87.7 ± 7.0% | Cc1[nH]cnc1CN1CCN(c2cccc(C#N)c2)C1=O [FCE 28276, 1-(5-methyl-1H-imidazol-4-yl)methyl-3-(3-cyanophenyl)-imidazolidin-2-one]
8 | 6.7 nM |  |  | 16.8 ± 8.1% | 28.6 µg/kg | 54.7 ± 2.3% |  |  |  | 85.8 ± 1.2% | CSc1cccc(N2CCN(Cc3nc[nH]c3C)C2=O)c1 [FCE 28278, 1-(5-methyl-1H-imidazol-4-yl)methyl-3-(3-methylthiophenyl)-imidazolidin-2-one]
9 | 4 nM | 14.6 ± 7.3% | 51.1 ± 4.3% | 83.3 ± 3.5% | 3.1 µg/kg |  |  |  |  |  | Cc1cccc(N2CCN(Cc3nc[nH]c3C)C2=O)c1 [FCE 28355, 1-(5-methyl-1H-imidazol-4-yl)methyl-3-(3-methylphenyl)-imidazolidin-2-one]
